From ChEMBL document CHEMBL5365457, “Selective HDAC3 Inhibitors with Potent In Vivo Antitumor Efficacy against Triple-Negative Breast Cancer” (J Med Chem, 2023)
Calls of active or inactive are those of the source. The rule behind the calls is not given here.

How the values were obtained:
[1] = Cytotoxicity against Oxaliplatin-resistant human MDA-MB-231 cell assessed as reduction in cell viability incubated for 72 hrs in presence of oxaliplatin by MTT assay; type: functional, cell-based; settings: Oxaliplatin-resistant MDA-MB-231 cell
4T1 [2] = assay: Antitumor activity against mouse 4T1 cells implanted in BALB/c mouse assessed as tumor growth inhibition at 5 mg/kg, ip measured on day 21; type: functional; settings: 4T1, 504 h, time 21 day, read-out: TGI
[3] = AUC (0 to infinity) in Wistar rat at 15 mg/kg, ip measured upto 24 hrs by HPLC analysis; type: ADME, organism-based; set-up: dose 15 mg/kg, time < 24 hrs, route ip; settings: in vivo
Histone deacetylase 2 = Histone deacetylase 2 (Homo sapiens, UniProt Q92769); assay: Inhibition of human recombinant HDAC2 incubated for 30 mins by fluorescence based microplate analysis
[4] = AUC (0 to infinity) in Wistar rat at 5 mg/kg, ip measured upto 24 hrs by HPLC analysis; type: ADME, organism-based; set-up: dose 5 mg/kg, time < 24 hrs, route ip; settings: in vivo
4T1 [5] = assay: In-vivo inhibition of HDAC3 in ip dosed BALB/c mouse implanted with mouse 4T1 cells assessed as hyperacetylation of H3K9 level by Western blot analysis; type: functional, organism-based; settings: dose 5-15 mg/kg
[6] = Selectivity ratio of IC50 for cytotoxicity against human MCF-10A cells assessed as inhibition of cell growth to IC50 for cytotoxicity against human MDA-MB-453 cells assessed as inhibition of cell growth; type: toxicity, cell-based; settings: MCF-10A cells versus MDA-MB-453 cells, read-out: Ratio IC50
[7] = Selectivity ratio of IC50 for cytotoxicity against human HCEC cells assessed as inhibition of cell growth to IC50 for cytotoxicity against human MCF7 cells assessed as inhibition of cell growth; type: toxicity, cell-based; settings: HCEC cells versus MCF7 cells, read-out: Ratio IC50
4T1 [8] = assay: Antitumor activity against mouse 4T1 cells implanted in BALB/c mouse assessed as reduction in Ki-67 expression in tumor tissue at 5 to 15 mg/kg, ip measured for 21 days by fluorescence based microscopic analysis; type: functional, organism-based; settings: dose 5-15 mg/kg, time 21.0 day
4T1 [9] = assay: Antitumor activity against mouse 4T1 cells implanted in BALB/c mouse assessed as decrease in number of lung aggregated cells at 15 mg/kg, ip measured for 7 days by H and E staining based assay; type: functional, organism-based; settings: time 7.0 day
4T1 [10] = assay: Antitumor activity against mouse 4T1 cells implanted in BALB/c mouse assessed as upregulation of caspase-7 level in tumor at 5 to 15 mg/kg, ip by Western blot analysis; type: functional, organism-based; settings: dose 5-15 mg/kg
4T1 [11] = assay: In-vivo inhibition of HDAC3 in BALB/c mouse implanted with mouse 4T1 cells assessed as increase in acetylation of SMC3 level at 5 to 15 mg/kg, ip by Western blot analysis; type: functional, organism-based; settings: dose 5-15 mg/kg
4T1 [12] = assay: Antitumor activity against mouse 4T1 cells implanted in BALB/c mouse assessed as upregulation of cytochrome c level in tumor at 5 to 15 mg/kg, ip by Western blot analysis; type: functional, organism-based; settings: dose 5-15 mg/kg
4T1 [13] = assay: Cell cycle arrest in mouse 4T1 cells assessed as accumulation of cells at G2/M phase at 550 nM incubated for 72 hrs by flow cytometry; type: functional
[14] = Toxicity in BALB/c mouse implanted with mouse 4T1 cells assessed as kidney fibrosis at 5 to 15 mg/kg, ip measured after 21 days; type: organism-based; settings: in vivo, 504 h, dose 5-15 mg/kg, time 21 day
[15] = Selectivity ratio of IC50 for cytotoxicity against human MCF-10A cells assessed as inhibition of cell growth to IC50 for cytotoxicity against human MDA-MB-231 cells assessed as inhibition of cell growth; type: toxicity, cell-based; settings: MCF-10A cells versus MDA-MB-231 cells, read-out: Ratio IC50
[16] = Toxicity in BALB/c mouse implanted with mouse 4T1 cells assessed as effect on cell shape in kidney at 5 to 15 mg/kg, ip measured after 21 days by H and E staining based assay; type: organism-based; settings: in vivo, 504 h, dose 5-15 mg/kg, time 21 day
4T1 [17] = assay: Induction of apoptosis in mouse 4T1 cells assessed as cell shrinkage incubated for 72 hrs by acridine orange staining based analysis; type: functional
[18] = Toxicity in BALB/c mouse implanted with mouse 4T1 cells assessed as neutrophilic infiltration in spleen at 5 to 15 mg/kg, ip measured after 21 days; type: organism-based; settings: in vivo, 504 h, dose 5-15 mg/kg, time 21 day
[19] = Selectivity ratio of IC50 for cytotoxicity against human HCEC cells assessed as inhibition of cell growth to IC50 for cytotoxicity against human MDA-MB-453 cells assessed as inhibition of cell growth; type: toxicity, cell-based; settings: HCEC cells versus MDA-MB-453 cells, read-out: Ratio IC50
4T1 [20] = assay: Antitumor activity against mouse 4T1 cells implanted in BALB/c mouse assessed as reduction in lung metastasis at 5 to 15 mg/kg, ip measured for 7 days by H and E staining based assay; type: functional; set-up: scale not given: the % may be the effect or the level left; settings: dose 5-15 mg/kg, time 7 day
[21] = Selectivity ratio of IC50 for cytotoxicity against human HEK293 cells assessed as inhibition of cell growth to IC50 for cytotoxicity against human MDA-MB-231 cells assessed as inhibition of cell growth; type: toxicity, cell-based; settings: HEK293 cells versus MDA-MB-231 cells, read-out: Ratio IC50
[22] = Selectivity ratio of IC50 for cytotoxicity against human HCEC cells assessed as inhibition of cell growth to IC50 for cytotoxicity against mouse 4T1 cells assessed as inhibition of cell growth; type: toxicity, cell-based; settings: HCEC cells versus 4T1 cells, read-out: Ratio IC50
[23] = Toxicity in BALB/c mouse implanted with mouse 4T1 cells assessed as effect on cell size in liver at 5 to 15 mg/kg, ip measured after 21 days by H and E staining based assay; type: organism-based; settings: in vivo, 504 h, dose 5-15 mg/kg, time 21 day
MCF7 = assay: Cytotoxicity against human MCF7 cells assessed as inhibition of cell growth incubated for 72 hrs by MTT assay; type: functional, cell-based; settings: MCF7, 72 h
Histone deacetylase 3 [24] = target: T1, Histone deacetylase 3 (Homo sapiens, UniProt O15379); assay: Inhibition of human recombinant HDAC3 at 1 uM measured after 30 mins by fluorescence based microplate assay relative to control
Histone deacetylase 3 [25] = target: T1, Histone deacetylase 3; assay: Inhibition of human recombinant HDAC3 incubated for 15 mins by fluorescence based microplate analysis
[26] = target: T2, Histone deacetylase 3 (Mus musculus) (UniProt O88895); assay: Inhibition of HDAC3 in mouse 4T1 cells assessed as increase in acetylation of H3K9 level at 1 uM incubated for 72 hrs by western blot analysis; type: cell-based
T2 sequence (whole entry): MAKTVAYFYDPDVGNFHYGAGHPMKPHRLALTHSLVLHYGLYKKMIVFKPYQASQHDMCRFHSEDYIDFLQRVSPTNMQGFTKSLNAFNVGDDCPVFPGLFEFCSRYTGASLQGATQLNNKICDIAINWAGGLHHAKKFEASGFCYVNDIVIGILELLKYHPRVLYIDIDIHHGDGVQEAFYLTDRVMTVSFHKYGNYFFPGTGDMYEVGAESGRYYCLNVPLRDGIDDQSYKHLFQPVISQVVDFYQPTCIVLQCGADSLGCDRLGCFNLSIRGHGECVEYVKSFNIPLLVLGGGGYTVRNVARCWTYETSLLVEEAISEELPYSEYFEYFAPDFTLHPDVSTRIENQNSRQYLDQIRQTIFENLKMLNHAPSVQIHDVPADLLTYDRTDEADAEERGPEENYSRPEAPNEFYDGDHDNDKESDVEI

T1 sequence (O15379 whole entry): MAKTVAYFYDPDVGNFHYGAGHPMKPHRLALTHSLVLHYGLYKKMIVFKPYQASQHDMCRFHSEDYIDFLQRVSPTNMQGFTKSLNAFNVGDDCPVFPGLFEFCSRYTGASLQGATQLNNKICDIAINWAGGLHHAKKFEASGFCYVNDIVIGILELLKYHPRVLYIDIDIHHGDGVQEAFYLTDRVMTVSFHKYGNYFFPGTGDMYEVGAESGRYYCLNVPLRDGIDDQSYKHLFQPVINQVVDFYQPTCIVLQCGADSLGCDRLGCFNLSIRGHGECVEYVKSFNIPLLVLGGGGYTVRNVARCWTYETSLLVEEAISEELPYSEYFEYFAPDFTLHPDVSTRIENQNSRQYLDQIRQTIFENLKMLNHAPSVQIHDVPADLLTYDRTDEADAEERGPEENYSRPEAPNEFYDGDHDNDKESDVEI
Sequence of Histone deacetylase 2 (Q92769 whole entry): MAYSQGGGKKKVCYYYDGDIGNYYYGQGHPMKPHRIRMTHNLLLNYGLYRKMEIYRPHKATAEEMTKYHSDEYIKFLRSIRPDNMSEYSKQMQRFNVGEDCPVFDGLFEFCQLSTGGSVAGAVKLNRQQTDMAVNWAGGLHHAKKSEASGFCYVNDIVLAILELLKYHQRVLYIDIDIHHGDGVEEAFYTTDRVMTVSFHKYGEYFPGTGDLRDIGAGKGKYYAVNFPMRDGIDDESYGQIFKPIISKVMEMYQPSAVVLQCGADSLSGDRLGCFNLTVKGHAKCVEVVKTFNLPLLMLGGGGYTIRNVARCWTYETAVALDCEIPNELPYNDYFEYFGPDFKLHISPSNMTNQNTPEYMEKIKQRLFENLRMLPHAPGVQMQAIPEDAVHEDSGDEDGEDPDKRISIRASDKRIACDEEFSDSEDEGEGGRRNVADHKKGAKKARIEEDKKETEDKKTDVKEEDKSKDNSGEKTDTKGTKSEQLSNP

AUC(0-inf) [3]: 20600 ng·h/mL | IC50 (Histone deacetylase 2): 1700 nM | AUC(0-inf) [4]: 4320 ng·h/mL | inhibition (Histone deacetylase 3 [24]): > 70% | IC50 (Histone deacetylase 3 [25]): 14 nM | inhibition [26]: Active
Compound: CCCNNC(=O)c1cnc(NCc2ccc(OC)cc2)cn1
IC50 [1]: 447 nM | inhibition in vivo at 5 mg/kg (4T1 [2]): 92.9% | inhibition (4T1 [5]): Dose-Dependent Effect | selectivity ratio [6]: 385 | selectivity ratio [7]: 286 | Activity (4T1 [8]): Active | Activity (4T1 [9]): Active | Activity (4T1 [10]): Active | inhibition (4T1 [11]): Active | Activity (4T1 [12]): Active | Activity (4T1 [13]): 52.6% | Activity [14]: Non-Toxic | selectivity ratio [15]: 385 | Activity [16]: Non-Toxic | Activity (4T1 [17]): Active | Activity [18]: Non-Toxic | selectivity ratio [19]: 286 | Activity (4T1 [20]): ~90% | selectivity ratio [21]: 286 | selectivity ratio [22]: 286 | Activity [23]: Non-Toxic | IC50 (MCF7): 950 nM
